Test system: MV-4-11 cells
Experiment: Gene expression microarray analysis (Affymetrix PrimeView) and GSEA
Format: cell-based, human
Design: RFU PODN (11730768_x_at) / Fold change /veh PODN (11730768_x_at) / RFU LINC00158 (11744669_a_at) / Fold change /veh LINC00158 (11744669_a_at) / RFU DUSP10 (11751237_a_at) / Fold change /veh DUSP10 (11751237_a_at) / RFU ID3 (11757404_x_at) / Fold change /veh ID3 (11757404_x_at) / RFU PLEKHG5 (11737974_s_at) / Fold change /veh PLEKHG5 (11737974_s_at) / RFU LRRC4B (11730491_at) / Fold change /veh LRRC4B (11730491_at) / RFU GIMAP4 (11747438_a_at) / Fold change /veh GIMAP4 (11747438_a_at) / RFU KRT8 (11758183_x_at) / Fold change /veh KRT8 (11758183_x_at) / RFU CNN1 (11734310_a_at) / Fold change /veh CNN1 (11734310_a_at) / RFU VPS37D (11726825_at) / Fold change /veh VPS37D (11726825_at) / RFU C10orf10 (11716522_x_at) / Fold change /veh C10orf10 (11716522_x_at) / RFU KIR2DL2 /// KIR2DL4 /// KIR2DL5A /// KIR2DL5B /// KIR2DS1 /// KIR2DS2 /// KIR2DS3 /// KIR2DS4 /// KIR3DL3 /// KIR3DL3 /// KIR3DS1 (11738374_at) / Fold change /veh KIR2DL2 /// KIR2DL4 /// KIR2DL5A /// KIR2DL5B /// KIR2DS1 /// KIR2DS2 /// KIR2DS3 /// KIR2DS4 /// KIR3DL3 /// KIR3DL3 /// KIR3DS1 (11738374_at) / RFU C1QL1 (11718748_at) / Fold change /veh C1QL1 (11718748_at) / RFU TMPRSS4 (11747572_a_at) / Fold change /veh TMPRSS4 (11747572_a_at) / RFU HAMP (11756126_x_at) / Fold change /veh HAMP (11756126_x_at) / RFU RNFT2 (11725882_a_at) / Fold change /veh RNFT2 (11725882_a_at) / RFU NR4A2 (11747474_a_at) / Fold change /veh NR4A2 (11747474_a_at) / RFU ABCC12 (11746883_a_at) / Fold change /veh ABCC12 (11746883_a_at) / RFU TMEM136 (11760407_x_at) / Fold change /veh TMEM136 (11760407_x_at) / RFU CLDN22 /// WWC2 (11732394_at) / Fold change /veh CLDN22 /// WWC2 (11732394_at) / RFU HLA-DPB1 (11760878_x_at) / Fold change /veh HLA-DPB1 (11760878_x_at) / RFU SPINT1 (11716480_a_at) / Fold change /veh SPINT1 (11716480_a_at) / RFU GAP43 (11754022_s_at) / Fold change /veh GAP43 (11754022_s_at) / RFU A4GNT (11735810_at) / Fold change /veh A4GNT (11735810_at) / RFU PRB3 (11715151_x_at) / Fold change /veh PRB3 (11715151_x_at) / RFU TUBB4B (11761932_at) / Fold change /veh TUBB4B (11761932_at) / RFU CAPN14 (11732068_a_at) / Fold change /veh CAPN14 (11732068_a_at) / RFU TMCC2 (11721928_a_at) / Fold change /veh TMCC2 (11721928_a_at) / RFU IRGQ (11745062_a_at) / Fold change /veh IRGQ (11745062_a_at) / RFU FAM174B (11720279_a_at) / Fold change /veh FAM174B (11720279_a_at) / RFU TMPRSS4 (11748680_a_at) / Fold change /veh TMPRSS4 (11748680_a_at) / RFU FAM212B (11763350_a_at) / Fold change /veh FAM212B (11763350_a_at) / RFU PLEKHG5 (11743358_a_at) / Fold change /veh PLEKHG5 (11743358_a_at) / RFU ZSCAN30 (11745921_a_at) / Fold change /veh ZSCAN30 (11745921_a_at) / RFU CMKLR1 (11741424_a_at) / Fold change /veh CMKLR1 (11741424_a_at) / RFU LOC101060620 /// MAPK8IP1 (11723275_at) / Fold change /veh LOC101060620 /// MAPK8IP1 (11723275_at) / RFU SPTSSB (11747773_x_at) / Fold change /veh SPTSSB (11747773_x_at) / RFU PRSS12 (11739890_at) / Fold change /veh PRSS12 (11739890_at) / RFU BIN1 (11741810_x_at) / Fold change /veh BIN1 (11741810_x_at) / RFU WNT11 (11732464_a_at) / Fold change /veh WNT11 (11732464_a_at) / RFU C10orf10 (11716521_a_at) / Fold change /veh C10orf10 (11716521_a_at) / RFU C5orf56 (11738089_at) / Fold change /veh C5orf56 (11738089_at) / RFU CYB561 (11721691_x_at) / Fold change /veh CYB561 (11721691_x_at) / RFU ANKRD19P (11752326_a_at) / Fold change /veh ANKRD19P (11752326_a_at) / RFU OR2T12 /// OR2T33 /// OR2T8 (11738714_s_at) / Fold change /veh OR2T12 /// OR2T33 /// OR2T8 (11738714_s_at) / RFU VCAN (11748164_a_at) / Fold change /veh VCAN (11748164_a_at) / RFU JSRP1 (11732532_at) / Fold change /veh JSRP1 (11732532_at) / RFU KRTAP10-11 (11738290_x_at) / Fold change /veh KRTAP10-11 (11738290_x_at) / RFU MYO3A (11730013_a_at) / Fold change /veh MYO3A (11730013_a_at) / RFU EBF3 (11725865_a_at) / Fold change /veh EBF3 (11725865_a_at) / RFU CAMK2N1 (11719241_x_at) / Fold change /veh CAMK2N1 (11719241_x_at) / RFU C5orf56 (11738088_a_at) / Fold change /veh C5orf56 (11738088_a_at) / RFU OLFML3 (11715873_a_at) / Fold change /veh OLFML3 (11715873_a_at) / RFU LOC100653217 /// NTM (11731650_a_at) / Fold change /veh LOC100653217 /// NTM (11731650_a_at) / RFU MAPK11 (11762145_a_at) / Fold change /veh MAPK11 (11762145_a_at) / RFU FIZ1 (11724087_x_at) / Fold change /veh FIZ1 (11724087_x_at) / RFU OASL (11726364_x_at) / Fold change /veh OASL (11726364_x_at) / RFU SOX15 (11748057_x_at) / Fold change /veh SOX15 (11748057_x_at) / RFU CD79A (11719716_a_at) / Fold change /veh CD79A (11719716_a_at) / RFU HIST1H1D (11736915_at) / Fold change /veh HIST1H1D (11736915_at) / RFU CASKIN2 (11723855_a_at) / Fold change /veh CASKIN2 (11723855_a_at) / RFU LOC730098 (11760151_x_at) / Fold change /veh LOC730098 (11760151_x_at) / RFU OR4N2 (11742367_at) / Fold change /veh OR4N2 (11742367_at) / RFU PRRT2 (11749266_a_at) / Fold change /veh PRRT2 (11749266_a_at) / RFU SNX32 (11753110_a_at) / Fold change /veh SNX32 (11753110_a_at) / RFU CDHR5 (11726645_a_at) / Fold change /veh CDHR5 (11726645_a_at) / RFU RCAN1 (11760418_a_at) / Fold change /veh RCAN1 (11760418_a_at) / RFU FAM167A (11723789_a_at) / Fold change /veh FAM167A (11723789_a_at) / RFU FAM26E (11764081_at) / Fold change /veh FAM26E (11764081_at) / RFU ISYNA1 (11749810_s_at) / Fold change /veh ISYNA1 (11749810_s_at) / RFU ACY1 (11761880_at) / Fold change /veh ACY1 (11761880_at) / RFU 11764098_at / Fold change /veh 11764098_at / RFU SAMD14 (11745864_x_at) / Fold change /veh SAMD14 (11745864_x_at) / RFU NPB (11741838_a_at) / Fold change /veh NPB (11741838_a_at) / RFU TMPRSS6 (11731388_a_at) / Fold change /veh TMPRSS6 (11731388_a_at) / RFU KRTAP10-2 (11738614_at) / Fold change /veh KRTAP10-2 (11738614_at) / RFU ARHGAP8 /// PRR5-ARHGAP8 (11727945_x_at) / Fold change /veh ARHGAP8 /// PRR5-ARHGAP8 (11727945_x_at) / RFU KRTAP5-7 /// NADSYN1 (11734609_at) / Fold change /veh KRTAP5-7 /// NADSYN1 (11734609_at) / RFU RASL12 (11751679_a_at) / Fold change /veh RASL12 (11751679_a_at) / RFU CDKN2B (11736163_a_at) / Fold change /veh CDKN2B (11736163_a_at) / RFU PRF1 (11729649_at) / Fold change /veh PRF1 (11729649_at) / RFU, ZNF638 /// ZNF638-IT1 / Fold change vs veh, ZNF638 /// ZNF638-IT1 / RFU, PANK3 / Fold change vs veh, PANK3 / RFU, SH3YL1 / Fold change vs veh, SH3YL1 / RFU, ZEB2 / Fold change vs veh, ZEB2 / RFU, NRIP1 / Fold change vs veh, NRIP1 / RFU, PTTG1IP / Fold change vs veh, PTTG1IP / RFU, CAPN2 / Fold change vs veh, CAPN2 / RFU, MED14 / Fold change vs veh, MED14 / RFU, SNORA58 / Fold change vs veh, SNORA58 / RFU, C1orf63 / Fold change vs veh, C1orf63 / RFU, LRRFIP1 / Fold change vs veh, LRRFIP1 / RFU, NDUFAF7 / Fold change vs veh, NDUFAF7 / RFU, SLC12A2 / Fold change vs veh, SLC12A2 / RFU, IBTK / Fold change vs veh, IBTK / RFU, ESF1 / Fold change vs veh, ESF1 / Fold change vs veh, TMEM50B / RFU, TAOK1 / Fold change vs veh, TAOK1 / RFU, ACBD3 / Fold change vs veh, ACBD3 / RFU, TMA16 / Fold change vs veh, TMA16 / RFU, RWDD3 / Fold change vs veh, RWDD3 / RFU, BCAT1 / Fold change vs veh, BCAT1 / RFU, EDEM3 / Fold change vs veh, EDEM3 / RFU, TMEM33 / Fold change vs veh, TMEM33 / RFU, WDR75 / Fold change vs veh, WDR75 / RFU, AHCTF1 / Fold change vs veh, AHCTF1 / RFU, TFRC / Fold change vs veh, TFRC / RFU, ZDHHC17 / Fold change vs veh, ZDHHC17 / RFU, NOM1 / Fold change vs veh, NOM1 / RFU, ARL8B / Fold change vs veh, ARL8B / RFU, ZBTB11 / Fold change vs veh, ZBTB11 / RFU, TAMM41 / Fold change vs veh, TAMM41 / RFU, KIAA1704 /// LOC100996395 / Fold change vs veh, KIAA1704 /// LOC100996395 / RFU, ING1 / Fold change vs veh, ING1 / RFU, TRMT61B / Fold change vs veh, TRMT61B / RFU, FUBP3 / Fold change vs veh, FUBP3 / RFU, TP53 / Fold change vs veh, TP53 / RFU, TNKS2 / Fold change vs veh, TNKS2 / RFU, ZFP14 / Fold change vs veh, ZFP14 / RFU, ACTR2 / Fold change vs veh, ACTR2 / RFU, PPP3R1 / Fold change vs veh, PPP3R1 / RFU, PIK3R1 / Fold change vs veh, PIK3R1 / RFU, HNRNPA1 / Fold change vs veh, HNRNPA1 / RFU, RNF170 / Fold change vs veh, RNF170 / RFU, ZNF28 / Fold change vs veh, ZNF28 / RFU, RNGTT / Fold change vs veh, RNGTT / RFU, OGT / Fold change vs veh, OGT / RFU, BRD1 / Fold change vs veh, BRD1 / RFU, MARS / Fold change vs veh, MARS / RFU, ZNF655 / Fold change vs veh, ZNF655 / RFU, FAHD1 / Fold change vs veh, FAHD1 / RFU, BDP1 / Fold change vs veh, BDP1 / RFU, LRRCC1 / Fold change vs veh, LRRCC1 / RFU, ARID1A / Fold change vs veh, ARID1A / RFU, ZNF146 / Fold change vs veh, ZNF146 / RFU, ZNF330 / Fold change vs veh, ZNF330 / RFU, GPN3 / Fold change vs veh, GPN3 / RFU, C9orf123 / Fold change vs veh, C9orf123 / RFU, N4BP2L2 / Fold change vs veh, N4BP2L2 / RFU, ARFIP1 / Fold change vs veh, ARFIP1 / RFU, FAM179B / Fold change vs veh, FAM179B / RFU, BCL10 / Fold change vs veh, BCL10 / RFU, UHRF1BP1L / Fold change vs veh, UHRF1BP1L / RFU, BET1 / Fold change vs veh, BET1 / RFU, CNOT2 / Fold change vs veh, CNOT2 / RFU, ZNF268 / Fold change vs veh, ZNF268 / Fold change vs veh, ZNF507 / RFU, DGCR2 / Fold change vs veh, DGCR2 / RFU, WDSUB1 / Fold change vs veh, WDSUB1 / Fold change vs veh, HSP90B1 /// MIR3652 / RFU, ADSS / Fold change vs veh, ADSS / RFU, GK / Fold change vs veh, GK / RFU, ZNF148 / Fold change vs veh, ZNF148 / RFU, TAF9 / Fold change vs veh, TAF9 / RFU, SLC1A5 / Fold change vs veh, SLC1A5 / RFU, SLMO2 / Fold change vs veh, SLMO2 / RFU, ABCC4 / Fold change vs veh, ABCC4 / RFU, LOC101060439 /// RAP1B / Fold change vs veh, LOC101060439 /// RAP1B / RFU, RFX7 / Fold change vs veh, RFX7 / RFU, GTPBP10 / Fold change vs veh, GTPBP10 / RFU, CNEP1R1 / Fold change vs veh, CNEP1R1 / RFU, BIVM-ERCC5 /// ERCC5 / Fold change vs veh, BIVM-ERCC5 /// ERCC5 / RFU, ILF3 / Fold change vs veh, ILF3 / RFU 11762660_at / Fold change /veh 11762660_at / RFU VCAN (11757783_s_at) / Fold change /veh VCAN (11757783_s_at) / RFU DDX43 (11728927_at) / Fold change /veh DDX43 (11728927_at) / RFU KRT8 (11758188_x_at) / Fold change /veh KRT8 (11758188_x_at) / RFU NKD1 (11759106_at) / Fold change /veh NKD1 (11759106_at) / RFU SRD5A1 (11742802_a_at) / Fold change /veh SRD5A1 (11742802_a_at) / RFU TPSAB1 /// TPSB2 (11721975_s_at) / Fold change /veh TPSAB1 /// TPSB2 (11721975_s_at) / RFU GSTM3 (11746129_a_at) / Fold change /veh GSTM3 (11746129_a_at) / RFU IL23R (11737362_x_at) / Fold change /veh IL23R (11737362_x_at) / RFU TMEM51 (11727254_a_at) / Fold change /veh TMEM51 (11727254_a_at) / RFU PIWIL2 (11732686_x_at) / Fold change /veh PIWIL2 (11732686_x_at) / RFU ORM1 (11744905_x_at) / Fold change /veh ORM1 (11744905_x_at) / RFU CCDC152 (11743942_at) / Fold change /veh CCDC152 (11743942_at) / RFU ECM1 (11717891_a_at) / Fold change /veh ECM1 (11717891_a_at) / RFU IL23R (11748794_a_at) / Fold change /veh IL23R (11748794_a_at) / RFU TNFAIP8L3 (11732012_x_at) / Fold change /veh TNFAIP8L3 (11732012_x_at) / RFU MBOAT4 (11741988_at) / Fold change /veh MBOAT4 (11741988_at) / RFU 11764193_at / Fold change /veh 11764193_at / RFU TMEM53 (11763286_at) / Fold change /veh TMEM53 (11763286_at) / RFU MAGEB2 (11727129_at) / Fold change /veh MAGEB2 (11727129_at) / RFU TMEM200A (11744735_a_at) / Fold change /veh TMEM200A (11744735_a_at) / RFU CCDC152 (11751479_a_at) / Fold change /veh CCDC152 (11751479_a_at) / RFU FAM211A (11726209_a_at) / Fold change /veh FAM211A (11726209_a_at) / RFU RGS16 (11746705_a_at) / Fold change /veh RGS16 (11746705_a_at) / RFU VCAN (11755009_s_at) / Fold change /veh VCAN (11755009_s_at) / RFU RHOB (11743442_s_at) / Fold change /veh RHOB (11743442_s_at) / RFU RGS16 (11720943_a_at) / Fold change /veh RGS16 (11720943_a_at) / RFU RGS16 (11720944_at) / Fold change /veh RGS16 (11720944_at) / RFU, VPS4B / Fold change vs veh, VPS4B / RFU, CREB1 / Fold change vs veh, CREB1 / RFU, DNAJC13 / Fold change vs veh, DNAJC13 / RFU, GNAQ / Fold change vs veh, GNAQ / RFU, CDK5R1 / Fold change vs veh, CDK5R1 / RFU, ZRANB3 / Fold change vs veh, ZRANB3 / RFU, CUL4A / Fold change vs veh, CUL4A / RFU, CCNY / Fold change vs veh, CCNY / RFU, UFL1 / Fold change vs veh, UFL1 / RFU, COG3 / Fold change vs veh, COG3 / RFU, DIAPH2 / Fold change vs veh, DIAPH2 / RFU, SKA2 / Fold change vs veh, SKA2 / RFU, AFF3 / Fold change vs veh, AFF3 / RFU, LMF1 / Fold change vs veh, LMF1 / RFU, IPO11 / Fold change vs veh, IPO11 / RFU, DFFB / Fold change vs veh, DFFB / RFU, FOXP1 / Fold change vs veh, FOXP1 / RFU, CARD8 / Fold change vs veh, CARD8 / RFU, STRN3 / Fold change vs veh, STRN3 / RFU, ADK / Fold change vs veh, ADK / RFU, RASSF2 / Fold change vs veh, RASSF2 / RFU, WIPF1 / Fold change vs veh, WIPF1 / RFU, LARP1B / Fold change vs veh, LARP1B / RFU, RASA1 / Fold change vs veh, RASA1 / RFU, RB1 / Fold change vs veh, RB1 / RFU, PPFIA1 / Fold change vs veh, PPFIA1 / RFU, MAT2A / Fold change vs veh, MAT2A / RFU, CCT5 / Fold change vs veh, CCT5 / RFU, WDR92 / Fold change vs veh, WDR92 / RFU, CUX1 / Fold change vs veh, CUX1 / RFU, TTC7A / Fold change vs veh, TTC7A / RFU, TMEM135 / Fold change vs veh, TMEM135 / RFU, DEPTOR / Fold change vs veh, DEPTOR / RFU, CPM / Fold change vs veh, CPM / RFU, DNAJB6 / Fold change vs veh, DNAJB6 / RFU, CACNA2D3 / Fold change vs veh, CACNA2D3 / RFU, DTX4 / Fold change vs veh, DTX4 / RFU, TFCP2 / Fold change vs veh, TFCP2 / RFU, GMCL1 /// GMCL1P1 / Fold change vs veh, GMCL1 /// GMCL1P1 / RFU, AEBP2 / Fold change vs veh, AEBP2 / RFU, SNHG1 /// SNORD22 /// SNORD25 /// SNORD26 /// SNORD27 /// SNORD28 /// SNORD29 /// SNORD31 / Fold change vs veh, SNHG1 /// SNORD22 /// SNORD25 /// SNORD26 /// SNORD27 /// SNORD28 /// SNORD29 /// SNORD31 / Fold change (Aza/veh), C12orf56 (ProbeSet 11735607_a_at) / Fold change (ACY-1035/veh), C12orf56 (ProbeSet 11735607_a_at) / Fold change (Aza/veh), FGFR1OP (ProbeSet 11751329_s_at) / Fold change (ACY-1035/veh), FGFR1OP (ProbeSet 11751329_s_at) / Fold change (Aza/veh), VPS36 (ProbeSet 11739960_a_at) / Fold change (ACY-1035/veh), VPS36 (ProbeSet 11739960_a_at) / RFU SYPL1 (11715823_x_at) / Fold change /veh SYPL1 (11715823_x_at) / RFU IGFBP7 (11715501_s_at) / Fold change /veh IGFBP7 (11715501_s_at) / RFU REEP3 (11722064_at) / Fold change /veh REEP3 (11722064_at) / RFU IGLL1 (11728026_x_at) / Fold change /veh IGLL1 (11728026_x_at): dose or concentration left out as unconfirmed
Conditions: MV-4-11 cells, 48 hours

## Nc1ccc(-c2cccs2)cc1NC(=O)c1ccc2c(c1)cc(C1CC1)n2CCN1CCOCC1 [ACY-1035]
  Fold change /veh KRT8 (11758183_x_at): 1.06
